Tests used:
γ-H2AX = experiment: PD analysis: γ-H2AX in CD45+ lymphocytes after ex vivo bleomycin stimulation, flow cytometry; parameters: species or system human; conditions: 2, 4, 6 hours on Day 1, sustained Day 2 at 2 to 4 hours, all four DLs
Procedure: The PD analyses in blood were conducted using samples collected during Cycle 1 at the following time points: Day 1, pre-dose, and post-dose at 2, 4, and 6 hours; Day 2 at pre-dose and post-dose at 2 to 4 hours; and Day 22 at pre-dose and post-dose at 2 and 4 hours. These samples were analyzed to assess levels of the PD biomarker, γ-H2AX, a phosphorylated histone variant known to represent an early and sensitive marker of DSB response ([18]). Each sample was stimulated ex vivo with bleomycin, a DNA DSB inducer that activates ATM function, or with phosphate-buffered saline as a negative control. γ-H2AX was subsequently measured in the CD45^+ lymphocyte fraction by flow cytometry.

[1] = tested on: human squamous cell carcinoma of the head and neck FaDu xenograft; parameters: method as in PMID 35405736; conditions: in combination with radiation; cited from earlier work
[2] = tested on: HBC-x9 triple-negative breast cancer model; parameters: method as in PMID 35405736; conditions: combined with PARP inhibitors (rucaparib or niraparib), wild-type BRCA1/2; cited from earlier work

Q: Which “γ-H2AX target inhibition over time” value (γ-H2AX) does the source give for COc1cc2ncc3c(c2cc1-c1cn(C)nc1C)n(-c1c(F)cncc1OC)c(=O)n3C [lartesertib] here?
A: trend of increasing lartesertib target inhibition

Q: And the Antitumor response [1]?
A: significant dose-dependent antitumor responses

Q: What about the Efficacy and tolerability [2] of the same molecule?
A: enhanced efficacy and acceptable tolerability
